Measured values reported in US20230218618A1, “ADMINISTRATION OF SUMO-ACTIVATING ENZYME INHIBITOR AND ANTI-CD38 ANTIBODIES” (MILLENNIUM PHARMACEUTICALS, INC., priority 2020, published 2023).

Experiments:
[1] = test system: A20-hCD38 mouse B-cell lymphoma cell line engineered to express the human CD38 cell surface protein; assay: Study 2: A20-hCD38 syngeneic mouse tumor model; type: in vivo, Balb/c mice; settings: for GRI%: vs vehicle; for Tumor growth relative to vehicle-treated tumors (pairwise comparison): I-263a 7.5 mg/kg QW or 15 mg/kg Q2W, daratumumab 20 mg/kg BIW, or I-263a plus daratumumab, data up to Day 15, p < 0.001
Method: (§1) Low tumor volumes can cause problems with the data analysis, so all measurements below 25 cubic mm (including 0 values) were excluded from the analysis. After this exclusion step, the tumor volume was assumed to follow an exponential growth model. More specifically, for a given animal and treatment group,
(§2) Pairwise comparisons were performed, where the mean growth rates were compared for various pairs of treatment conditions. The results were summarized using the growth rate inhibition (GRI). Suppose µT and µC are the mean tumor growth rates for the treatment and reference groups, respectively. Define
(§3) Here, µAB, µA, µB, and µControl are the mean growth rates for the combination, drug A, drug B, and control groups, respectively. As before, µv is the mean tumor growth rate for the vehicle group, which in most cases is the same as the control group. The standard error of the synergy score was calculated as the square root of the sum of squared standard errors across the four groups. The degrees of freedom were estimated using the Welch-Satterthwaite equation. A hypothesis test was performed to determine if the synergy score differed from 0. P-values were calculated by dividing the synergy score by its standard error and tested against a t-distribution (two-tailed) with the above-calculated degrees of freedom. A P value of less than 0.05 is statistically significant.
(§4) The combination results can be interpreted as follows. Statistically significant negative synergy scores indicate a synergistic combination (“Syn.”). Statistically significant positive synergy scores indicate a sub-additive combination (“Sub-add.”) when the combination performs better (i.e. has a lower growth rate) than the best performing single agent. Statistically significant positive synergy scores indicate an antagonistic combination (“Antag.”) when the combination performs worse than the best performing single agent. Scores that are not statistically significant should be considered additive (“Add.”).
A20-hCD38 is a mouse B-cell lymphoma cell line engineered to express the human CD38 cell surface protein. An A20-hCD38 syngeneic mouse tumor model was generated by subcutaneous inoculation with 5.0 × 10^6 cells (cell suspension) in 6 weeks old female Balb/c mice (Jackson Laboratory, 10 Discovery Dr., Farmington, CT) in the flank. When the mean tumor volume reached approximately 70 mm^3, the animals were randomized into one vehicle control and five treatment groups (n=8/group). Mice were dosed with 20% HPβCD or Compound I-263a or daratumumab over a 28-day period. Tumor growth and body weight were measured twice per week during the treatment and post-treatment periods, and mice were humanely euthanized once they had reached their humane endpoint.
A 1.575 mg/mL and a 0.788 mg/mL stock solution of I-263a was formulated weekly in 20% HPβCD and administered IV based on an average body weight using a 0.2 mL dosing volume. Final doses I-263a received were 15 mg/kg or 7.5 mg/kg, respectively. I-263a was administered on a QW or Q2W schedule for 4 weeks (Days 1, 8, 15, and 22). Daratumumab (anti-CD38 antibody) (Myoderm Medical Supplies, 48 E Main St., Norristown, PA 19401) was purchased at the beginning of the study and stored at 4° C. according to manufacturer’s instructions. Final dose daratumumab received was 20 mg/kg based on average body weight. Daratumumab was administered intraperitoneally (IP) using a 0.1 mL dosing volume, on a BIW schedule for 4 weeks (Days 1, 4, 8, 11, 15, 18, 22 and 25).
(§5) Tumors were measured twice weekly using Vernier calipers. Tumor volumes were calculated using standard equation: V = W^2 × L/2, where V = volume, W = width, and L = length for the tumor. When mean tumor volumes reached approximately 70 mm^3, mice were randomized into control and treatment groups. Mice were randomized into 6 groups (n=8/group) and dosed with vehicle (20% HPβCD), I-263a, daratumumab, or the combination of I-263a plus daratumumab at doses and schedules as described above. […]

[2] = test system: RPMI-8226 human multiple myeloma cell line; assay: Study 6: RPMI-8226 human multiple myeloma subcutaneous tumor model; type: in vivo, SCID mice; settings: for Tumor growth compared to vehicle-treated tumors (pairwise comparison): I-263a 7.5 mg/kg BIW 2 weeks, daratumumab 2.5, 7.5 or 20 mg/kg BIW 2 weeks, or both, p > 0.05; for GRI%: vs vehicle
[3] = test system: LP-1 human multiple myeloma cell line; assay: Study 3: LP-1 xenograft human multiple myeloma subcutaneous tumor model; type: in vivo, CB17 SCID mice; settings: for GRI%: vs vehicle
Method: as §1, §2, §3, §4
LP-1 is a human multiple myeloma cell line. A LP-1 human xenograft tumor model was generated by subcutaneous inoculation with […] LP-1 cells (cell suspension) in 7 weeks old female CB17 SCID mice (Charles River Laboratories, 251 Ballardvale St., Wilmington, MA) in the flank. When the mean tumor volume reached approximately 100 mm^3, the animals were randomized into one vehicle control and seven treatment groups (n=8/group). Mice were then dosed with 20% HPβCD or Compound I-263a or daratumumab over a 35-day period. Tumor growth and body weight were measured twice per week during the treatment and post-treatment periods, and mice were humanely euthanized once they had reached their humane endpoint.
A 0.75 mg/mL stock solution of I-263a was formulated weekly in 20% HPβCD and administered IV based on an average body weight using a 0.2 mL dosing volume. Final dose I-263a received was 7.5 mg/kg. I-263a was administered on a BIW schedule for 5 weeks (Days 1, 4, 8, 11, 15, 18, 22, 25, 29 and 33). Daratumumab (anti-CD38 antibody) (Myoderm Medical Supplies, 48 E Main St., Norristown, PA 19401) was purchased at the beginning of the study and stored at 4° C. according to manufacturer’s instructions. Final dose daratumumab received was 2.5 mg/kg, 7.5 mg/kg, and 20 mg/kg based on average body weight. Daratumumab was administered intraperitoneally (IP) using a 0.1 mL dosing volume, on a BIW schedule for 5 weeks (Days 1, 4, 8, 11, 15, 18, 22, 25, 29 and 33).
as §5, with “approximately 100” for “approximately 70”, “into 8” for “into 6”

[4] = I-263a 7.5 mg/kg BIW 5 weeks (p < 0.01), daratumumab 20 mg/kg (p < 0.01), I-263a 7.5 mg/kg BIW with daratumumab 2.5, 7.5 or 20 mg/kg (p < 0.001)

With `Cc1sc(C(=O)c2cncnc2N[C@@H]2C[C@H](COS(N)(=O)=O)[C@@H](O)C2)cc1[C@@H]1NCCc2ccc(Cl)cc21` [Compound I-263a, [(1R,2S,4R)-4-{[5-({4-[(1R)-7-chloro-1,2,3,4-tetrahydroisoquinolin-1-yl]-5-methyl-2-thienyl}carbonyl)pyrimidin-4-yl]amino}-2-hydroxycyclopentyl]methyl sulfamate] the “Tumor volume on Day 15 (± SEM)” value ([1]; I-263a 7.5 mg/kg QW IV) was 613.1 ± 179.3, the GRI% ([1]; I-263a 7.5 mg/kg QW IV) was 37% and the “Tumor growth relative to vehicle-treated tumors (pairwise comparison)” value [1] was “significant tumor growth inhibition”. For the same compound, the “Tumor volume on Day 15 (± SEM)” value ([1]; I-263a 15 mg/kg Q2W IV) was 839.7 ± 229.7, the GRI% ([1]; I-263a 15 mg/kg Q2W IV) was 24% and the “Tumor growth compared to vehicle-treated tumors (pairwise comparison)” value [2] was “not significantly different than vehicle-treated tumors”. For the same compound, the “Tumor volume on Day 20 (± SEM)” value ([2]; I-263a 7.5 mg/kg BIW IV) was 1763.2 ± 213.2, the GRI% ([2]; I-263a 7.5 mg/kg BIW IV) was -12% and the “Tumor growth compared to vehicle treated mice (pairwise comparison)” value [3, 4] was “significant tumor growth inhibition”. The “Tumor volume on Day 17 (± SEM)” value ([3]; I-263a 7.5 mg/kg BIW IV) was 1043.3 ± 260.1 and the GRI% ([3]; I-263a 7.5 mg/kg BIW IV) was 15%.
For “Daratumumab: immunoglobulin G1 kappa (IgG1κ) human monoclonal antibody against CD38 antigen”, the “Tumor volume on Day 15 (± SEM)” value ([1]; Daratumumab 20 mg/kg BIW IP) was 1443.7 ± 276.4, the GRI% ([1]; Daratumumab 20 mg/kg BIW IP) was 3% and the “Tumor growth relative to vehicle-treated tumors (pairwise comparison)” value [1] was “significant tumor growth inhibition”. For the same compound, the “Tumor volume on Day 20 (± SEM)” value ([2]; Daratumumab 2.5 mg/kg BIW IP) was 1875.5 ± 170.1, the GRI% ([2]; Daratumumab 2.5 mg/kg BIW IP) was -6% and the “Tumor volume on Day 20 (± SEM)” value ([2]; Daratumumab 7.5 mg/kg BIW IP) was 1510.7 ± 144.6. For the same compound, the GRI% ([2]; Daratumumab 7.5 mg/kg BIW IP) was -2%, the “Tumor volume on Day 20 (± SEM)” value ([2]; Daratumumab 20 mg/kg BIW IP) was 1456.6 ± 166.6 and the GRI% ([2]; Daratumumab 20 mg/kg BIW IP) was 11%. The “Tumor growth compared to vehicle-treated tumors (pairwise comparison)” value [2] was “not significantly different than vehicle-treated tumors”, the “Tumor volume on Day 17 (± SEM)” value ([3]; Daratumumab 2.5 mg/kg BIW IP) was 988.8 ± 183.4 and the GRI% ([3]; Daratumumab 2.5 mg/kg BIW IP) was 16%. The “Tumor volume on Day 17 (± SEM)” value ([3]; Daratumumab 7.5 mg/kg BIW IP) was 1204.8 ± 190.1, the GRI% ([3]; Daratumumab 7.5 mg/kg BIW IP) was 8% and the “Tumor volume on Day 17 (± SEM)” value ([3]; Daratumumab 20 mg/kg BIW IP) was 1078 ± 207.7. The GRI% ([3]; Daratumumab 20 mg/kg BIW IP) was 10%, the “Tumor growth compared to vehicle treated mice (pairwise comparison)” value [3, 4] was “significant tumor growth inhibition” and the “Tumor growth compared to vehicle treated mice (pairwise comparison)” value ([3]; daratumumab 2.5 mg/kg or 7.5 mg/kg single agent, p > 0.05) was “not significantly different from vehicle treated mice”.
